Source: ChEMBL document CHEMBL5154671 (Eur J Med Chem, 2022)
The source made the active and inactive calls. No cut-off for these calls is given here.

What was measured:
Mus musculus [1] = test: Anti-NASH activity in high-fat/high-sugar diet and CCl4-induced nonalcoholic steatohepatitis male C57BL/6 mouse assessed as decrease in hepatic TG level at 100 mg/kg, po administered for 4 weeks; assay type: functional, organism-based
Mus musculus [2] = test: Anti-NASH activity in high-fat/high-sugar diet and CCl4-induced nonalcoholic steatohepatitis male C57BL/6 mouse assessed as decrease in SCD1 mRNA expression at 100 mg/kg, po administered for 4 weeks; assay type: functional, organism-based
[3] = molecular target: Free fatty acid receptor 1 (Homo sapiens, UniProt O14842); test: Agonist activity at human FFA1 expressed in CHO cells measured by FLIPR assay; assay type: functional, cell-based
Sequence of Free fatty acid receptor 1 (O14842 whole entry): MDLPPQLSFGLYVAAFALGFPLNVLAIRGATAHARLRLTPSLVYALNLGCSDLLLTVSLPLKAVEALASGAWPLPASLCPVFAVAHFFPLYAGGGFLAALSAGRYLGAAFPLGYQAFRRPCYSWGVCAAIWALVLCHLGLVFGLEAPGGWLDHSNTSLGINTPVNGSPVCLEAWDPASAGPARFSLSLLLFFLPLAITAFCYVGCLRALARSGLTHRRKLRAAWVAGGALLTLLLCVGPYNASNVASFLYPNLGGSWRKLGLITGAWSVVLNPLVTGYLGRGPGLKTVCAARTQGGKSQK

Mus musculus [4] = test: Anti-NASH activity in high-fat/high-sugar diet and CCl4-induced nonalcoholic steatohepatitis male C57BL/6 mouse assessed as decrease in disease activity score at 100 mg/kg, po administered for 4 weeks; assay type: functional, organism-based
Mus musculus [5] = test: Protection against liver fibrosis in high-fat/high-sugar diet and CCl4-induced nonalcoholic steatohepatitis male C57BL/6 mouse assessed as decrease in alpha-SMA expression in liver at 100 mg/kg, po administered for 4 weeks; assay type: functional, organism-based
Mus musculus [6] = test: Protection against CCl4-induced liver fibrosis in male C57BL/6 mouse assessed as decrease in hepatic hydroxyproline content at 100 mg/kg […]; assay type: functional, organism-based
[7] = Half-life in rat liver microsomes in presence of NADPH measured by LC/MS analysis; assay type: ADME, Microsome
[8] = Acute toxicity in ICR mouse assessed as change in serum TBIL level at 500 mg/kg, IG; assay type: organism-based; conditions: in vivo, po
Mus musculus [9] = test: Anti-fibrotic activity in high-fat/high-sugar diet and CCl4-induced nonalcoholic steatohepatitis male C57BL/6 mouse assessed as decrease in TIMP-1 mRNA expression at 100 mg/kg, po administered for 4 weeks; assay type: functional, organism-based
Mus musculus [10] = test: Anti-NASH activity in high-fat/high-sugar diet and CCl4-induced nonalcoholic steatohepatitis male C57BL/6 mouse assessed as decrease in lobular inflammation score at 100 mg/kg, po administered for 4 weeks; assay type: functional, organism-based
Mus musculus [11] = test: Anti-inflammatory activity in high-fat/high-sugar diet and CCl4-induced nonalcoholic steatohepatitis male C57BL/6 mouse assessed as decrease in TNF-alpha mRNA expression at 100 mg/kg, po administered for 4 weeks; assay type: functional, organism-based
Mus musculus [12] = test: Anti-NASH activity in high-fat/high-sugar diet and CCl4-induced nonalcoholic steatohepatitis male C57BL/6 mouse assessed as decrease in F4/80 expression at 100 mg/kg, po administered for 4 weeks; assay type: functional, organism-based
Mus musculus [13] = test: Anti-inflammatory activity in high-fat/high-sugar diet and CCl4-induced nonalcoholic steatohepatitis male C57BL/6 mouse assessed as decrease in IL-6 mRNA expression at 100 mg/kg, po administered for 4 weeks; assay type: functional, organism-based
[14] = Acute toxicity in ICR mouse assessed as change in serum AST level at 500 mg/kg, IG; assay type: organism-based; conditions: in vivo, po
[15] = Acute toxicity in ICR mouse assessed as change in serum ALT level at 500 mg/kg, IG; assay type: organism-based; conditions: in vivo, po
[16] = molecular target: T1, Peroxisome proliferator-activated receptor alpha (Homo sapiens, UniProt Q07869); test: Agonist activity at human PPARalpha measured by dual luciferase reporter gene assay
T1 sequence (Q07869 whole entry): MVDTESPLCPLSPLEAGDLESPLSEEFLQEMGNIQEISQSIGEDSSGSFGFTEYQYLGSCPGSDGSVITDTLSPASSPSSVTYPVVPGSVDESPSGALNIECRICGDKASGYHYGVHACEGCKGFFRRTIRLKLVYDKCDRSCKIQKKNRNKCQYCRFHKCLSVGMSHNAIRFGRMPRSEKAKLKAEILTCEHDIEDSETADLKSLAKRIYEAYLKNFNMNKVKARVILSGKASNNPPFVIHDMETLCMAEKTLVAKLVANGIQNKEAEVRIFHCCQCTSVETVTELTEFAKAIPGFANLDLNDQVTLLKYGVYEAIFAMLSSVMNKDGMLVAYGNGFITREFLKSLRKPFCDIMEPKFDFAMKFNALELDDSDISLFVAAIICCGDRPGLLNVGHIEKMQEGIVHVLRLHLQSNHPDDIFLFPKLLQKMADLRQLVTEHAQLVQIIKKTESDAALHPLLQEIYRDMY

[17] = Clearance in rat liver microsomes in presence of NADPH measured by LC/MS analysis; assay type: ADME, Microsome; conditions: read-out: CLH

In the case of `COc1ccc(/C=C/c2cc(OC)cc(OCc3ccc(OCC(=O)O)c(F)c3)c2)cc1`, the Activity (Mus musculus [1]) is reported as “Active”, the Activity (Mus musculus [2]) is reported as “Active” and the EC50 [3] is reported as 1.5 µM. For the same molecule, the Activity (Mus musculus [4]) was “Active”, the Activity (Mus musculus [5]) was “Active” and the Activity (Mus musculus [6]) was “Active”. For the same molecule, the half-life [7] was 51.2 min, the Activity [8] was “Non-Toxic” and the Activity (Mus musculus [9]) was “Active”. For the same molecule, the Activity (Mus musculus [10]) was “Active”, the Activity (Mus musculus [11]) was “Active” and the Activity (Mus musculus [12]) was “Active”. For the same molecule, the Activity (Mus musculus [13]) was “Active”, the Activity [14] was “Non-Toxic” and the Activity [15] was “Non-Toxic”. The EC50 [16] was 8.5 µM and the microsomal CLint [17] was 27.1 µL/min/mg.
